Measurements: patent publication US5043450A, “8-alkoxyquinolonecarboxylic acid and salts thereof” (priority 1986, dated 1991)
Values after ≈ are worked out from the molar mass of the structure shown.

How the values were obtained:
Type in all cases: cell-based
[1] = system: Bacilus subtilis PCI 219; assay: Antibacterial spectra, MIC; details: Bacillus subtilis, PCI219
[2] = system: Staphylococcus aureus 209 P; assay: Antibacterial spectra, MIC
[3] = system: S. aureus IID 670 (Terajima); assay: Antibacterial spectra, MIC; details: Staphylococcus aureus, IID670
[4] = system: S. aureus Smith; assay: Antibacterial spectra, MIC; details: Staphylococcus aureus
[5] = system: E. coli ML 4707; assay: Antibacterial spectra, MIC; details: Escherichia coli, ML4707; 10^6 cells/ml; Gram -
Method: (§1) The antibacterial test was carried out according to the method designated by Japan Society of Chemotherapy.

[6] = system: E. faecalis IID 682; assay: Antibacterial spectra, MIC; details: Enterococcus faecalis, IID682; 10^6 cells/ml; Gram +
Method: as §1

[7] = system: Proteus vulgaris IFO 3167; assay: Antibacterial spectra, MIC; details: IFO3167, 10^6 cells/ml, Gram -
Method: as §1

[8] = system: Shigella sonnei IID 969; assay: Antibacterial spectra, MIC; details: IID969, 10^6 cells/ml, Gram -
Method: as §1

[9] = system: Streptococcus pyogenes (S-8); assay: Antibacterial spectra, MIC; details: 10^6 cells/ml, Gram +
Method: as §1

[10] = system: S. pyogenes IID 692; assay: Antibacterial spectra, MIC; details: Streptococcus pyogenes, IID692
[11] = system: S. pneumoniae IID 552; assay: Antibacterial spectra, MIC; details: Streptococcus pneumoniae, IID552
[12] = system: Escherichia coli NIHJ JC-2; assay: Antibacterial spectra, MIC; details: NIHJJC2
[13] = system: E. coli ATCC 10536; assay: Antibacterial spectra, MIC; details: Escherichia coli, ATCC10536
[14] = system: P. mirabilis IID 994; assay: Antibacterial spectra, MIC; details: Proteus mirabilis, IID994
[15] = system: Morganella morganii IID 602; assay: Antibacterial spectra, MIC; details: IID602
[16] = system: Klebsiella pneumoniae KY(GN)6445; assay: Antibacterial spectra, MIC
[17] = system: K. pneumoniae 1-220S; assay: Antibacterial spectra, MIC; details: Klebsiella pneumoniae, 1220S
[18] = system: Enterobacter cloacae IID 977; assay: Antibacterial spectra, MIC; details: IID977
[19] = system: Citrobacter freundii IID 976; assay: Antibacterial spectra, MIC; details: IID976
[20] = system: Serratia marcescens IID 618; assay: Antibacterial spectra, MIC; details: IID618
[21] = system: Salmonella enteritidis IID 604; assay: Antibacterial spectra, MIC; details: Salmonella enterica
[22] = system: Pseudomonas aeruginosa V-1; assay: Antibacterial spectra, MIC; details: V1
[23] = system: P. aeruginosa IFO 12689; assay: Antibacterial spectra, MIC; details: Pseudomonas aeruginosa, IFO12689; 10^6 cells/ml; Gram -; read-out: MIC
[24] = system: P. aeruginosa IID 1210; assay: Antibacterial spectra, MIC; details: Pseudomonas aeruginosa, IID1210; 10^6 cells/ml; Gram -; read-out: MIC
[25] = system: P. cepacia GIFU 518; assay: Antibacterial spectra, MIC; details: Burkholderia cepacia, GIFU518; 10^6 cells/ml; Gram -; read-out: MIC
[26] = system: P. maltophilia GIFU 2491; assay: Antibacterial spectra, MIC; details: Stenotrophomonas maltophilia, GIFU2491
[27] = system: Yersinia enterocolitica IID 981; assay: Antibacterial spectra, MIC; details: IID981
[28] = system: Acinetobacter anitratus IID 876; assay: Antibacterial spectra, MIC; details: Acinetobacter calcoaceticus, IID876
[29] = system: Alcaligenes faecalis 0114002; assay: Antibacterial spectra, MIC
[30] = system: Bacteroides fragilis GM 7000; assay: Antibacterial spectra, MIC; details: GM7000
[31] = system: B. fragilis 0558; assay: Antibacterial spectra, MIC; details: Bacteroides fragilis
[32] = system: B. fragilis 25285; assay: Antibacterial spectra, MIC; details: Bacteroides fragilis
[33] = system: B. distasonis 8503; assay: Antibacterial spectra, MIC; details: Parabacteroides distasonis, 10^6 cells/ml, Gram -, read-out: MIC
[34] = system: B. thetaiotaomicron (0661); assay: Antibacterial spectra, MIC; details: Bacteroides thetaiotaomicron; 10^6 cells/ml; Gram -; read-out: MIC
[35] = system: B. vulgatus KYA 29327; assay: Antibacterial spectra, MIC; details: Phocaeicola vulgatus, KYA29327
[36] = system: Fusobacterium mortiferum 4249; assay: Antibacterial spectra, MIC; details: 10^6 cells/ml, Gram -, read-out: MIC
[37] = system: F. necrophorum S-45; assay: Antibacterial spectra, MIC; details: Fusobacterium necrophorum, S45; 10^6 cells/ml; Gram -; read-out: MIC
[38] = system: F. varium KYA 8501; assay: Antibacterial spectra, MIC; details: Fusobacterium varium, KYA8501; 10^6 cells/ml; Gram -; read-out: MIC
[39] = system: Eubacterium lentum GAI 5242; assay: Antibacterial spectra, MIC; details: Eggerthella lenta, GAI5242
[40] = system: Propionibacterium acens 11828; assay: Antibacterial spectra, MIC; details: 10^6 cells/ml, Gram +, read-out: MIC
[41] = system: Peptococcus magnus KY 017; assay: Antibacterial spectra, MIC; details: Finegoldia magna, KY017; 10^6 cells/ml; Gram +; read-out: MIC
[42] = system: C. perfringens KYA 13123; assay: microbe, parasite or virus in culture; details: Clostridium perfringens, KYA13123
[43] = system: C. ramosum; assay: Antibacterial spectra, MIC; details: Thomasclavelia ramosa; 10^6 cells/ml; Gram +; read-out: MIC
[44] = system: Peptostreptococcus anaerobius KYA 27337; assay: Antibacterial spectra, MIC; details: KYA27337, 10^6 cells/ml, Gram +, read-out: MIC
[45] = system: Pst. micros UPI 5464-1; assay: Antibacterial spectra, MIC; details: Parvimonas micra, UPI54641
[46] = system: Veillonella parvula KYA 10790; assay: Antibacterial spectra, MIC; details: KYA10790

COc1c(N2CCNCC2)c(F)c(N)c2c(=O)c(C(=O)O)cn(C3CC3)c12 [Exp. 10, 5-amino-1-cyclopropyl-6-fluoro-1,4-dihydro-8-methoxy-4-oxo-7-(1-piperazinyl)-3-quinolinecarboxylic acid]
MIC [1]: 0.025 µg/mL (≈ 0.0664 µM) | MIC [2]: 0.05 µg/mL (≈ 0.133 µM) | MIC [3]: 0.1 µg/mL (≈ 0.266 µM) | MIC [4]: 0.1 µg/mL (≈ 0.266 µM) | MIC [5]: 0.05 µg/mL (≈ 0.133 µM) | MIC [6]: 0.39 µg/mL | MIC [7]: 0.1 µg/mL (≈ 0.266 µM) | MIC [8]: 0.025 µg/mL (≈ 0.0664 µM) | MIC [9]: 0.39 µg/mL | MIC [10]: > 0.78 µg/mL | MIC [11]: > 0.78 µg/mL | MIC [12]: 0.025 µg/mL (≈ 0.0664 µM) | MIC [13]: 0.05 µg/mL (≈ 0.133 µM) | MIC [14]: 0.2 µg/mL (≈ 0.531 µM) | MIC [15]: 0.2 µg/mL (≈ 0.531 µM) | MIC [16]: 0.05 µg/mL (≈ 0.133 µM) | MIC [17]: 0.2 µg/mL (≈ 0.531 µM) | MIC [18]: 0.2 µg/mL (≈ 0.531 µM) | MIC [19]: 0.05 µg/mL (≈ 0.133 µM) | MIC [20]: 0.2 µg/mL (≈ 0.531 µM) | MIC [21]: 0.2 µg/mL (≈ 0.531 µM) | MIC [22]: 0.39 µg/mL (≈ 1.04 µM) | MIC [23]: 1.56 µg/mL (≈ 4.14 µM) | MIC [24]: 1.56 µg/mL (≈ 4.14 µM) | MIC [25]: 1.56 µg/mL (≈ 4.14 µM) | MIC [26]: 0.2 µg/mL (≈ 0.531 µM) | MIC [27]: 0.2 µg/mL (≈ 0.531 µM) | MIC [28]: 0.1 µg/mL (≈ 0.266 µM) | MIC [29]: 0.78 µg/mL (≈ 2.07 µM) | MIC [30]: 3.13 µg/mL (≈ 8.32 µM) | MIC [31]: 3.13 µg/mL (≈ 8.32 µM) | MIC [32]: 3.13 µg/mL (≈ 8.32 µM) | MIC [33]: 6.25 µg/mL (≈ 16.6 µM) | MIC [34]: 6.25 µg/mL (≈ 16.6 µM) | MIC [35]: 0.39 µg/mL (≈ 1.04 µM) | MIC [36]: 1.56 µg/mL (≈ 4.14 µM) | MIC [37]: 1.56 µg/mL (≈ 4.14 µM) | MIC [38]: 50 µg/mL (≈ 133 µM) | MIC [39]: 0.78 µg/mL (≈ 2.07 µM) | MIC [40]: 12.5 µg/mL (≈ 33.2 µM) | MIC [41]: 1.56 µg/mL (≈ 4.14 µM) | MIC [42]: 3.13 µg/mL (≈ 8.32 µM) | MIC [43]: 1.56 µg/mL (≈ 4.14 µM) | MIC [44]: 1.56 µg/mL (≈ 4.14 µM) | MIC [45]: 0.39 µg/mL (≈ 1.04 µM) | MIC [46]: 0.39 µg/mL (≈ 1.04 µM)
